The text below walks through data of patent US12391697B2, “Condensed bi-heterocycles as inhibiting agents for Bruton's tyrosine kinase” (BIOGEN MA INC., priority 2019, dated 2025).

Counter-ions that a name gives are not always drawn. Some results are limits rather than exact numbers.

For assay [1], the system named is CD69 expression on CD19+ B cells in whole blood. As to the kind of experiment: In Vitro Whole Blood CD69 Assay. In kind it is cell-based, Human. To be noted: Homo sapiens, B-cell, human heparinized whole blood, anti-human IgD stimulation, percentage of CD19+ B cells expressing CD69; read-out: IC50. The procedure: In Vitro Whole Blood CD69 Assay
Human heparinized venous blood from health donors was aliquoted into 96-well plate and “spiked” with serial dilutions of formula I compounds in DMSO or with DMSO without drug. The final concentration of DMSO in all wells was 0.1%. The plate was incubated at 37° C. for 30 min. Drug-containing samples were stimulated with 0.1 μg/mL mouse anti-human IgD-dextran (1A62) or 20 μg/mL polyclonal rabbit F(ab′)2 anti-human IgD. Phosphate-buffered saline (PBS) was added to the negative control unstimulated sample and the plates were incubated overnight (18 to 22 hours) at 37° C. Cells were stained with fluorochrome-conjugated anti-CD19 and anti-CD69 antibodies. Lyse/fix solution was used to remove red blood cells by hypotonic lysis and to fix the remaining cells, which were then analyzed by flow cytometry. CD19+ B cells were gated and analyzed for CD69 expression. The percentage of B cells expressing CD69 was plotted versus the log 10 of the concentration of the drug and the best-fit curves (variable Hill slope) were generated to obtain the IC50 value.

Another assay concerns the target BTK (Homo sapiens (Human), UniProt Q06187). The experiment in a line: In Vitro BTK Kinase Assay: Btk-PolyGAT-LS Assay. It is filed as biochemical. To be noted: active BTK enzyme 0.25 nM, ATP 10 μM, polyGAT 100 nM, 30 minutes. Summed up:
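Recombinant BTK (0.25 nM) phosphorylating 100 nM polyGAT at 10 μM ATP in Tris-HCl pH 7.5 buffer with MgCl2, DTT, Triton X-100 and casein, 30 min, then EDTA stop.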

Sequence of BTK (Q06187 whole entry): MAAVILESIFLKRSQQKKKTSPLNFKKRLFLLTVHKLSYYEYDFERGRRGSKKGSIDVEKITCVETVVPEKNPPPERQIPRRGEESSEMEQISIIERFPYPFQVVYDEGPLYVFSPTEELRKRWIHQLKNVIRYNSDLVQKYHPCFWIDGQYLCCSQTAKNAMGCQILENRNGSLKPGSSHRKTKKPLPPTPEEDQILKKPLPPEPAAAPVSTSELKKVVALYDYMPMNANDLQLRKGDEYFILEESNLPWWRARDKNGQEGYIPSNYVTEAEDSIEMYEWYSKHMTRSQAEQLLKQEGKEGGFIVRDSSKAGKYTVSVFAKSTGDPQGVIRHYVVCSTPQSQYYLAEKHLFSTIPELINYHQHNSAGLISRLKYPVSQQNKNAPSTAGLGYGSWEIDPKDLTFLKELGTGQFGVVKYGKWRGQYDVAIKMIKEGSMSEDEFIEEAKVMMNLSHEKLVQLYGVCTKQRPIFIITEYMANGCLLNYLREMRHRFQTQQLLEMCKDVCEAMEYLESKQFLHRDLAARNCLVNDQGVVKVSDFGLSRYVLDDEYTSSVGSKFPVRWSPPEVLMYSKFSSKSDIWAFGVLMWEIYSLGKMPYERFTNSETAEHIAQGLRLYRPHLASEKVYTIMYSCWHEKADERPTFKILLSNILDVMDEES

As for `Cc1cc(-c2ncnn3cc(N4CCN(C)CC4)cc23)ccc1CNC(=O)c1noc(C(C)(C)C)n1` [Example 4, 5-(tert-butyl)-N-(2-methyl-4-(6-(4-methylpiperazin-1-yl)pyrrolo[2,1-f][1,2,4]triazin-4-yl)benzyl)-1,2,4-oxadiazole-3-carboxamide trifluoroacetate], the IC50 (as a rule, the concentration needed to halve the response being measured) in assay [1] was less than 100 nM; against BTK, no more than 1 nM.

Turning to `Cc1c(CNC(=O)c2nc(C(C)(C)C)no2)ccc(-c2ncnn3cc(N4CCN(C)[C@@H](C)C4)cc23)c1F` (single isomer, unassigned) [Example 26], the IC50 in assay [1] was 100 to 1000 nM; against BTK, no more than 1 nM.

As to `COc1cc(-c2ncnn3cc(-c4cnn(C)c4)cc23)ccc1CNC(=O)c1noc(C(C)(C)C)n1` [Example 35, 5-(tert-butyl)-N-(2-methoxy-4-(6-(1-methyl-1H-pyrazol-4-yl)pyrrolo[2,1-f][1,2,4]triazin-4-yl)benzyl)-1,2,4-oxadiazole-3-carboxamide hydrochloride], the IC50 is 100 to 1000 nM in assay [1] and no more than 1 nM at BTK.

`CC(C)(C)c1nc(C(=O)NCc2cc(F)c(-c3ncnn4cccc34)cc2Cl)co1` [Example 134] gave an IC50 at BTK greater than 10 nM.

Compound `Cc1cc(-c2ncnn3cc(N4CCn5ccnc5C4)cc23)ccc1CNC(=O)c1noc(C(C)(C)C)n1` [Example 120] registered an IC50 at BTK of no more than 1 nM.

For the compound `COC1CN(C(=O)c2cc3c(-c4ccc(CNC(=O)c5noc(C(C)(C)C)n5)c(C)c4)ncnn3c2)C1` [Example 217], at BTK, the IC50 was no more than 1 nM.

As for `Cc1cc(-c2ncnn3cc(N4CCN(C)C(C)C4)cc23)ccc1CNC(=O)c1noc(C(C)(C)C)n1` (stereo not shown) [Example 96], on BTK, the IC50 is no more than 1 nM.

On BTK, `CC(C)(C)n1cc(C(=O)NCc2ccc(-c3ncnn4cc(N5CCOCC5)cc34)cc2C2CC2)nn1` [Example 205] came in with a half-maximal inhibitory concentration (IC50) of 1 to 10 nM.

`Cc1cc(-c2ncnn3cc(N4C[C@@H](F)[C@@H](F)C4)cc23)ccc1CNC(=O)c1noc(C(C)(C)C)n1` [Example 122] showed an IC50 at BTK of no more than 1 nM.

As for `Cc1cc(-c2ncnn3cccc23)ccc1CNC(=O)c1nnc(C(C)(C)C)o1` [Example 185], the IC50 against BTK is greater than 10 nM.

`Cc1c(CNC(=O)c2noc(C3(C)CC3)n2)ccc(-c2ncnn3cc(-c4cnn(C)c4)cc23)c1F` [Example 42, N-(3-fluoro-2-methyl-4-(6-(1-methyl-1H-pyrazol-4-yl)pyrrolo[2,1-f][1,2,4]triazin-4-yl)benzyl)-5-(1-methylcyclopropyl)-1,2,4-oxadiazole-3-carboxamide hydrochloride] showed an IC50 at BTK of no more than 1 nM.

`Cn1cc(-c2cc3c(-c4ccc(CNC(=O)c5coc(C(C)(C)C)n5)c(C(F)F)c4)ncnn3c2)cn1` [Example 211] had an IC50 against BTK of no more than 1 nM.

On BTK, `COc1c(CNC(=O)c2noc(C(C)(C)C)n2)ccc(-c2ncnn3cccc23)c1F` [Example 180] gave an IC50 of 1 to 10 nM.

Consider `Cc1cc(-c2ncnn3cc(C4=CCOCC4)cc23)ccc1CNC(=O)c1cnc(C(C)(C)C)o1` (single isomer, unassigned) [Example 125], for which the IC50 against BTK was no more than 1 nM.

Turning to `Cc1cc2c(-c3ccc(CNC(=O)c4noc(C(C)(C)C)n4)c(C)c3)ncnn2c1` [Example 55], at BTK, the IC50 was no more than 1 nM.

`Cc1c(CNC(=O)c2noc(C(C)(C)C)n2)ccc(-c2ccnc3cc(N4CCOCC4)nn23)c1F` [Example 84] registered an IC50 against BTK of 1 to 10 nM.

The compound `Cc1cc(-c2ncnn3cc(-c4ccc(C#N)cc4)cc23)ccc1CNC(=O)c1noc(C(C)(C)C)n1` [Example 225] displayed a 50% inhibitory concentration (IC50) against BTK of no more than 1 nM.

On BTK, `CC(C)(C)n1cc(C(=O)NCc2ccc(-c3ncnn4cc(N5CCOCC5)cc34)c(F)c2Cl)nn1` [Example 157] yielded an IC50 of no more than 1 nM.

On BTK, `Cc1cc(-c2ncnn3cc(N4CC(CO)(CO)C4)cc23)ccc1CNC(=O)c1noc(C(C)(C)C)n1` [Example 73, N-(4-(6-(3,3-bis(hydroxymethyl)azetidin-1-yl)pyrrolo[2,1-f][1,2,4]triazin-4-yl)-2-methylbenzyl)-5-(tert-butyl)-1,2,4-oxadiazole-3-carboxamide] returned a 50% inhibitory concentration (IC50) of no more than 1 nM.

At BTK, `Cc1cc(-c2ncnn3cc(-c4cnn(C)c4)cc23)ccc1CNC(=O)c1cnn(C(C)(C)C)c1` [Example 167] yielded a half-inhibitory concentration (IC50) of no more than 1 nM.

On BTK, `Cc1cc(-c2ncnn3cc(-c4cn(C)nc4C)cc23)ccc1CNC(=O)c1noc(C(C)(C)C)n1` [Example 108] came in with an IC50 of no more than 1 nM.

The compound `CC(C)(C)c1nc(C(=O)NCc2ccc(-c3ncnn4cc(-c5cnn(CC(F)F)c5)cc34)cc2C(F)F)co1` [Example 210] yielded a half-maximal inhibitory concentration (IC50) at BTK of no more than 1 nM.

As for `CO[C@H]1CCN(c2cc3c(-c4ccc(CNC(=O)c5nc(C(C)(C)C)no5)c(C)c4)ncnn3c2)C1` (single isomer, unassigned) [Example 23], the half-inhibitory concentration (IC50) at BTK was no more than 1 nM.

For the compound `Cc1cc(-c2cc3c(-c4ccc(CNC(=O)c5noc(C(C)(C)C)n5)c(C)c4)ncnn3c2)cnn1` [Example 170], the IC50 at BTK is no more than 1 nM.

Compound `Cc1cc(-c2ncnn3cc(N4CCO[C@@H](C)C4)cc23)ccc1CNC(=O)c1nnn(C(C)(C)C)n1` (single isomer, unassigned) [Example 140] returned an IC50 against BTK of 1 to 10 nM.

As for `CC(C)(C)c1nc(C(=O)NCc2ccc(-c3ncnn4cc(N5CCOCC5)cc34)c(F)c2CC(F)F)no1` [Example 234], the IC50 against BTK is 1 to 10 nM.

`COc1c(CNC(=O)c2ccn(C(C)(C)C)n2)ccc(-c2ncnn3cc(N4CCOCC4)cc23)c1F` [Example 202] returned an IC50 at BTK of 1 to 10 nM.

On BTK, `Cc1cc(-c2ncnn3cncc23)ccc1CNC(=O)c1noc(C(C)(C)C)n1` [Example 54] had an IC50 of 1 to 10 nM.

Take `CC(C)(C)c1noc(C(=O)NCc2ccc(-c3ncnn4cc(N5CCOCC5)cc34)cc2C2CC2)n1` [Example 206]: on BTK, the IC50 is no more than 1 nM.

As to `Cc1c(CNC(=O)c2nc(C(C)(C)C)no2)ccc(-c2ccnc3cc(N4CCOCC4)nn23)c1F` [Example 118], the IC50 against BTK was in the range of 1 to 10 nM.

The compound `Cc1c(CNC(=O)c2cn(C(C)(C)C)nn2)ccc(-c2ncnn3cc(N4CCOCC4)cc23)c1F` [Example 87] gave an IC50 against BTK of no more than 1 nM.

On BTK, `Cc1cc(-c2ncnn3ccc(F)c23)ccc1CNC(=O)c1noc(C(C)(C)C)n1` [Example 19, 5-(tert-butyl)-N-(4-(5-fluoropyrrolo[2,1-f][1,2,4]triazin-4-yl)-2-methylbenzyl)-1,2,4-oxadiazole-3-carboxamide trifluoroacetate] came in with an IC50 of 1 to 10 nM.

As to `Cc1cc(-c2ncnn3cc(N4CCN(C)C[C@H]4C)cc23)ccc1CNC(=O)c1noc(C(C)(C)C)n1` [Example 92], the IC50 on BTK is 1 to 10 nM.

In the case of `Cc1cc(-c2ncnn3cc(N4C[C@@H](C)O[C@H](C)C4)cc23)ccc1CNC(=O)c1noc(C(C)(C)C)n1` (single isomer, unassigned) [Example 43], on BTK, the half-inhibitory concentration (IC50) was no more than 1 nM.

On to `Cc1cc(-c2ncnn3cc(N4CCO[C@@H](C)C4)cc23)ccc1CNC(=O)c1nc(C(C)(C)C)no1` (single isomer, unassigned) [Example 138], for which the IC50 on BTK is no more than 1 nM.

In the case of `Cc1cc(-c2ncnn3cc(-c4ccc(F)cc4)cc23)ccc1CNC(=O)c1noc(C(C)(C)C)n1` [Example 224], the IC50 against BTK was no more than 1 nM.

`Cc1cc(-c2ncnn3cc(-c4cnsc4)cc23)ccc1CNC(=O)c1noc(C(C)(C)C)n1` [Example 172] gave an IC50 at BTK greater than 10 nM.

`Cc1cc(-c2ncnn3cc(-c4cnn(CC(F)F)c4)cc23)ccc1CNC(=O)c1nnn(C(C)(C)C)n1` [Example 146] had an IC50 against BTK of no more than 1 nM.

Consider `Cn1cc(-c2cc3c(-c4ccc(CNC(=O)c5nnc(C(C)(C)C)o5)c(C(F)F)c4F)ncnn3c2)cn1` [Example 196], for which the IC50 at BTK was no more than 1 nM.

In the case of `CC(C)(C)c1noc(C(=O)NCc2ccc(-c3ncnn4cc(N5CCOCC5)cc34)cc2C(F)(F)F)n1` [Example 186], the concentration for half-maximal inhibition (IC50) on BTK was no more than 1 nM.

For `Cc1cc(-c2ncnn3cc(-c4cnn(CC(F)F)c4)cc23)ccc1CNC(=O)c1cnn(C(C)(C)C)c1` [Example 145], at BTK, the concentration for half-maximal inhibition (IC50) was no more than 1 nM.

At BTK, `COCc1cc2c(-c3ccc(CNC(=O)c4noc(C(C)(C)C)n4)c(C)c3)ncnn2c1` [Example 77, 5-(tert-butyl)-N-(4-(6-(methoxymethyl)pyrrolo[2,1-f][1,2,4]triazin-4-yl)-2-methylbenzyl)-1,2,4-oxadiazole-3-carboxamide hydrochloride] gave an IC50 of 1 to 10 nM.

`Cn1cc(-c2cc3c(-c4ccc(CNC(=O)c5noc(C(C)(C)C)n5)c(CC(F)F)c4)ncnn3c2)cn1` [Example 231] came in with an IC50 against BTK of no more than 1 nM.

Consider `Cc1cc(-c2ncnn3cccc23)ccc1CNC(=O)c1cn(C(C)(C)C)nn1` [Example 184], for which the concentration for half-maximal inhibition (IC50) on BTK is greater than 10 nM.

At BTK, `Cc1cc(-c2ncnn3cc(C4=CCOCC4)cc23)ccc1CNC(=O)c1ccn(C(C)(C)C)n1` (single isomer, unassigned) [Example 127] gave a 50% inhibitory concentration (IC50) of no more than 1 nM.

`Cc1c(CNC(=O)c2noc(C(C)(C)C)n2)ccc(-c2ncnn3cccc23)c1F` [Example 218] registered an IC50 against BTK of no more than 1 nM.

As to `Cc1cc(-c2ncnn3cc(C4CCN(C)C4)cc23)ccc1CNC(=O)c1noc(C(C)(C)C)n1` (stereo not shown) [Example 149], the IC50 against BTK was 1 to 10 nM.

On BTK, `Cn1cc(-c2cc3c(-c4ccc(CNC(=O)c5nc(C(C)(C)C)no5)c(C(F)F)c4F)ncnn3c2)cn1` [Example 194] gave an IC50 of no more than 1 nM.

In the case of `CC(C)(C)n1nnc(C(=O)NCc2cc(F)c(-c3ncnn4cccc34)cc2Cl)n1` [Example 136], on BTK, the IC50 was greater than 10 nM.
